In publication PMC2882332, “Species Used for Drug Testing Reveal Different Inhibition Susceptibility for 17beta-Hydroxysteroid Dehydrogenase Type 1” (PLoS ONE, 2010) one finds Observed % inhibition, inhibition and IC50 data, which are given here for 5 compounds.

In one assay the target is T1, human 17β-HSD 5 (AKR1C3) (Homo sapiens, UniProt P42330).
T1 construct: made in house; host or cells: E.coli BL21 DE3 Codon Plus RP
T1 sequence (P42330 1-323): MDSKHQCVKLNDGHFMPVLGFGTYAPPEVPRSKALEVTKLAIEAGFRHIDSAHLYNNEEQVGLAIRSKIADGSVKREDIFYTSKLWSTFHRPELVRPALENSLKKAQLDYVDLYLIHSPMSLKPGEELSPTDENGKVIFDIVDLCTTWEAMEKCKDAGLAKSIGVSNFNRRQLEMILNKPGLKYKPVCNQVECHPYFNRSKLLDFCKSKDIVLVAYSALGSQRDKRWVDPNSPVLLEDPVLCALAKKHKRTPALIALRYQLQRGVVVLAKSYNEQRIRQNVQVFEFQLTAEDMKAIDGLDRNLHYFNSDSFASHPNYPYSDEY
The assay is described as follows: In vitro enzymatic activity, recombinant human 17β-HSD 5 (androstenedione reduction). It is filed as biochemical. As to conditions: 2 µM compound, 21 nM 3H-androstenedione, NADPH, pH 6.6. An excerpt:
(§1) Full length cDNAs of several 17β-HSDs type 1 originating from different species were cloned either into the pQE30 vector (human 17β-HSD 1, coding for acc. no. NP_000404) for expression as His-Tag protein or into a modified pGex-2T vector [63] (mouse 17β-HSD 1, acc. no. NP_034605; rat 17β-HSD 1, acc. no. NP_036983; marmoset 17β-HSD 1, acc. no. AAG01115; porcine 17β-HSD 1, acc. no. NP_001121944) for expression as GST-fusion proteins. The marmoset 17β-HSD 1 enzyme sequence was updated by the missing N-terminal part (AF272013) and the new porcine sequence was submitted to GenBank (NP_001121944). Human 17β-HSDs 2, 4, 5 (AKR1C3, the latter kindly provided by Dr. T. Penning) and 7 were all cloned into the modified pGEX-2T vector. For 17β-HSD 4 only the SDR-domain converting the steroids was subcloned. Plasmids were transformed into E.coli BL21 DE3 Codon Plus RP (Stratagene) and enzyme expression was induced by 0.5 mM IPTG. After 4h incubation at 37°C with continuous shaking bacteria were pelleted by centrifugation at 10.000×g. Pellets were stored until use at −20°C.
(§2) The bacteria containing recombinant enzymes were resuspended in PBS and enzymatic assays were performed in 100 mM sodium phosphate buffer at pH 6.6 for the reductive reaction and at pH 7.7 for the oxidative reaction. […] All substrates were purchased from NEN/Perkin Elmer. The cofactors NADPH (Sigma; for reductive reactions) and NAD^+ (Serva, for oxidative reactions) were used at final concentrations of 0.5 mg/ml. […] The incubation at 37°C was stopped with 0.21 M ascorbic acid in methanol∶acetic acid 99∶1 (v∶v) after the time needed to convert approximately 30% of the substrate in a control assay with 1% DMSO, without inhibitor candidates. […] The solvent used was acetonitrile∶water (43∶57, v∶v) at a flow rate of 1 ml/min. Radioactivity was detected by online-scintillation counting (Berthold LB506D) after mixing with ReadyFlowIII (Beckman). Conversion was calculated from integration of substrate and product peaks. […] All assays were run in duplicates of two independent experiments and mean values are reported. The IC50 values were determined by the One Ligand Binding model of SigmaPlot kinetics module.

The target in another assay is T2, human 17β-HSD 2 (Homo sapiens, UniProt P37059).
T2 construct: made in house; host or cells: E.coli BL21 DE3 Codon Plus RP
T2 sequence (P37059 1-387): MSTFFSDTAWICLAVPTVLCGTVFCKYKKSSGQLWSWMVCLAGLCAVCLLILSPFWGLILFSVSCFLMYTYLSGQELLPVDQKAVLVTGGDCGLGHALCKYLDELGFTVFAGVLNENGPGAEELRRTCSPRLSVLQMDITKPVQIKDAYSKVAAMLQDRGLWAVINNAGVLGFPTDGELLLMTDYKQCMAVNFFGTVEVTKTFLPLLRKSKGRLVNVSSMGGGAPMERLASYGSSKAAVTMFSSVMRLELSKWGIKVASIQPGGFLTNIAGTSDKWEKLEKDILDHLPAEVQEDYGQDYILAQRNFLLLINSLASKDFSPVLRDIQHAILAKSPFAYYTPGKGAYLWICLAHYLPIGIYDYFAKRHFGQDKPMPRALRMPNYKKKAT
The assay is described as follows: In vitro enzymatic activity, recombinant human 17β-HSD 2 (estradiol oxidation). It is filed as biochemical. As to conditions: 2 µM compound, 21 nM 3H-estradiol, NAD+, pH 7.7, read-out: Observed % inhibition.
Source text: as §1, §2

The target of the next assay is T3, human 17β-HSD 4 (Homo sapiens, UniProt P51659).
T3 construct: For 17β-HSD 4 only the SDR-domain converting the steroids was subcloned; made in house; host or cells: E.coli BL21 DE3 Codon Plus RP
T3 sequence (P51659 1-305 limits assumed): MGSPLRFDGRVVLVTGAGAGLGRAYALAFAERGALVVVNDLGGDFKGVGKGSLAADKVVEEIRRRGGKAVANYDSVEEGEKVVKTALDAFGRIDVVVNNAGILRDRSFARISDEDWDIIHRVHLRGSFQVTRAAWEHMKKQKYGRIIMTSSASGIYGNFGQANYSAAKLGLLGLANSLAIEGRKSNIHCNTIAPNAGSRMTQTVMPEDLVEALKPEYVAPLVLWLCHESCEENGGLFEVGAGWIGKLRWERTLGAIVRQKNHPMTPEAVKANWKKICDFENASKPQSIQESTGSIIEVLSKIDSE
The assay is described as follows: In vitro enzymatic activity, recombinant human 17β-HSD 4 SDR-domain (estradiol oxidation). As to conditions: 2 µM compound, 21 nM 3H-estradiol, NAD+, pH 7.7. It is filed as biochemical.
Source text: as §1, §2

A further assay has as its target T4, porcine 17β-HSD 1 (Sus scrofa, UniProt B2X0A4).
T4 sequence (B2X0A4 1-321): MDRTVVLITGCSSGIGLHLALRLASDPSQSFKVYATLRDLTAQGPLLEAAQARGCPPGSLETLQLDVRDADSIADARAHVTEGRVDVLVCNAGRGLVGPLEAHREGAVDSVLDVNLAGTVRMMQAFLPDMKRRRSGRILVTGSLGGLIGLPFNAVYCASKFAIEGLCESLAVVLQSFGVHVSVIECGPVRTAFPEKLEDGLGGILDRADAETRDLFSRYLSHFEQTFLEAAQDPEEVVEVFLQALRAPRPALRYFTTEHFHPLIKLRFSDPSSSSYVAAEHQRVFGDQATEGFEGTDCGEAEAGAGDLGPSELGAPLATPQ
The assay is described as follows: In vitro enzymatic activity, recombinant porcine 17β-HSD 1. In kind it is biochemical, pig. As to conditions: for pIC50: Pig 17β-HSD 1, 0.005 µM to 5 µM inhibitor; for inhibition at 2 µM: read-out: Observed % inhibition.
Source text: as §1, §2

[1] abbreviates: pig 17β-HSD 1, 2 µM compound, 15 nM 3H-estrone.

pIC50: −log10 of the molar value. Like-named read-outs stand apart in the source and are kept apart here.

Usually inhibition stands for the change of the read-out against control, counted positive when it falls. As to `C[C@]12CC[C@@H]3c4ccc(O)cc4CC[C@H]3[C@@H]1[C@@H](CNC(=O)c1ccc(F)cc1)CC2=O` [Compound 1], the Observed % inhibition at human 17β-HSD 5 (AKR1C3) is reported as 21.6%; at human 17β-HSD 4 it was 7.2%. Besides, the inhibition at 2 µM at human 17β-HSD 2 is -4.3%.
Usually pIC50 stands for the negative decadic logarithm of the IC50, by convention in mol/L. For `C[C@]12CC[C@@H]3c4ccc(O)cc4CC[C@H]3[C@@H]1[C@@H](CCCC(=O)N1CCOCC1)CC2=O` [Compound 2], the Observed % inhibition is 33.9% at human 17β-HSD 5 (AKR1C3) and 0.1% on human 17β-HSD 4. On porcine 17β-HSD 1, the negative-log IC50 (pIC50) is 6.34. The inhibition at 2 µM on porcine 17β-HSD 1 (setting [1]) was determined as 67%; at human 17β-HSD 2, 16.7%.
Take `Cc1cnc(NC(=O)CC[C@@H]2CC(=O)[C@@]3(C)CC[C@@H]4c5ccc(O)cc5CC[C@H]4[C@H]23)s1` [Compound 3]: the figures for the Observed % inhibition at human 17β-HSD 5 (AKR1C3) and on human 17β-HSD 4 were 29.3% and 2.1%, respectively. Moreover, the pIC50 at porcine 17β-HSD 1 was 9.47. Besides, the inhibition at 2 µM on porcine 17β-HSD 1 (setting [1]) was 105%; on human 17β-HSD 2, 18.6%.
For `COc1ccc(-c2cn(CCC[C@H]3CC(=O)[C@@]4(C)CC[C@@H]5c6ccc(O)cc6CC[C@H]5[C@H]34)nn2)cc1` [Compound 4], the Observed % inhibition was 93.5% on human 17β-HSD 5 (AKR1C3) and 5.5% on human 17β-HSD 4. The inhibition at 2 µM was 66.2% at porcine 17β-HSD 1 and -0.3% at human 17β-HSD 2.
On to `C[C@]12CC[C@@H]3c4ccc(O)cc4CC[C@H]3[C@@H]1C[C@H](CC(=O)NCc1cccnc1)C2=O` [Compound 5, reference compound], for which the Observed % inhibition on human 17β-HSD 5 (AKR1C3) amounted to 50.6%; at human 17β-HSD 4, 5.6%. The inhibition at 2 µM at porcine 17β-HSD 1 (setting [1]) was 95.7%; on human 17β-HSD 2, -3.2%.
